In US20020151734A1, “12-HETrE analogs and methods of use thereof” (priority 2001, published 2002):
*1 amine or outer side, *2 acyl side, *3 side chain or, on linkers, in order; H or OH if unused. Where a SMILES comes first, the peptide text is derived from it. Bridges are numbered along the chain shown (N, C = ends). Roman numbers before positions name the chains, in order. [ ]: non-standard residue; d: D form. Actinocin(9to1) = Cc1c2oc3c(C)ccc(C(=O)[*:1])c3nc-2c(C(=O)[*:2])c(N)c1=O; NMeV = CN[C@H](C(=O)O)C(C)C; Sar = CNCC(=O)O

Columns and labels:
RLME cells = test: Inhibition of [^3H]12(R)-HETrE binding to RLME cells; settings: analog 1 μM; for % Inhibition of [^3H]12(R)-HETrE binding: [^3H]12(R)-HETrE at 10 nM, RLME cells; for Result (agonist or antagonist): classed from % inhibition of [^3H]12(R)-HETrE binding
Procedure: Alternatively, the antagonistic or agonistic activity of 12-HETrE analogs may be measured by determining the percentage of inhibition of [^3H]12(R)-HETrE binding at 10 nM to RLME cells. Generally, inhibition of [^3H]12(R)-HETrE binding greater than 50% is indicative of agonists and inhibition lower than 50% is indicative of antagonists.

VEGF mRNA = VEGF mRNA levels in microvessel endothelial (RLMVE) cells by slot blot analysis; format: cell-based; settings: for effect on 12(R)-HETrE-induced VEGF mRNA/expression: co-incubation with 12(R)-HETrE
Procedure: The antagonistic or agonistic activity of 12-HETrE analogs may be measured by measuring increases in vascular cadothelial growth factor (VEGF) mRNA following incubation of microvessel endothelial cells (RLMVE cells) with 12(R)-HETrE and other compounds followed by slot blot analysis, as described in the Examples. […] In this way the 12-HETrE analogs 8-(R) and 8-(S) were determined to be 12(R)-HETrE agonists.
12(R)-HETrE increased VEGF mRNA levels in a time-dependent manner. A 5-fold increase over the control levels was observed 45 min after addition of 12(R)-HETrE. These levels gradually declined to the control levels by 48 h. […] 12(R)-HETrE increased VEGF mRNA in a concentration-dependent manner with 0.1 nM having the maximal effect.
Human VEGF cDNA was used as a probe for slot blot analysis to measure increases in VEGF mRNA following incubation of RLMVE cells with 12(R)-HETrE and 12-HETrE analogs. To measure agonistic activity compounds were added to the incubation medium at concentration of 0.1, 1, and 10 nM and their effect on VEGF mRNA levels after 45 min incubation was measured in comparison to that of 12(R)-HETrE at the same concentration. To measure antagonistic activity, compounds at the above concentrations were added with 0.1 nM 12(R)-HETrE and 45 min later RNA extracted samples were processed for slot blot analysis.

SMILES	% Inhibition of [^3H]12(R)-HETrE binding (RLME cells) [%]	Result (agonist or antagonist) (RLME cells)	further results
CCCCC/C=C\C[C@H](O)CC/C=C\CC#CCCCC(=O)O [3-(R), 12(R)-hydroxyeicosa-8(Z),14(Z)-dien-5-ynoic acid]	58.1	Agonist (inhibition of [^3H]12(R)-HETrE binding greater than 50% is indicative of agonists)	
CCCCC/C=C\C[C@@H](O)CC/C=C\C/C=C\CCCC(=O)NS(C)(=O)=O [1-a-(S), N-(Methylsulfonyl)-12(S)-hydroxyeicosa-5(Z),8(Z),14(Z)-trienamide]	33.3	Antagonist (inhibition lower than 50% is indicative of antagonists)	increase in VEGF mRNA (densitometry) (VEGF mRNA; 1 nM, 45 min incubation): 5 fold; agonistic activity by VEGF mRNA increase (VEGF mRNA; slot blot analysis): significant agonistic activity
CCCCC/C=C\C[C@@H](O)CC/C=C\C/C=C\COCC(=O)O [4-a-(S)]	24.3	Antagonist (inhibition lower than 50% is indicative of antagonists)	
CCCCCC=CC[C@H](O)CCC=CCC=CCCCC(=O)O [12(R)-HETrE, 12(R)-hydroxy-5,8,14-eicosatrienoic acid]	69.8		time by which VEGF mRNA levels declined to the control levels (VEGF mRNA; 0.1 nM): ≤ 48 h; increase in VEGF mRNA over the control levels (VEGF mRNA; 0.1 nM, 45 min after addition): 5 fold; concentration having the maximal effect on VEGF mRNA (VEGF mRNA; concentration-dependent increase): 0.1 nM
CCCCC/C=C\C[C@@H](O)CCCCC/C=C\CCCC(=O)O [7-(S), 12(S)-Hydroxyeicosa-5,(Z)14(Z)-dienoic acid]	69.5	Agonist (inhibition of [^3H]12(R)-HETrE binding greater than 50% is indicative of agonists)	
CCCCC/C=C\C[C@@H](O)CC/C=C\CC#CCCCC(=O)O [3-(S), 12(S)-Hydroxyeicosa-8(Z),14(Z)-dien-5-ynoic acid]	23.6	Antagonist (inhibition lower than 50% is indicative of antagonists)	
CCCCC/C=C\C[C@@H](O)CC/C=C\CCCCCCC(=O)O [5-(S), 12(S)-Hydroxyeicosa-8(Z),14(Z)-dienoic acid]	54.5	Agonist (inhibition of [^3H]12(R)-HETrE binding greater than 50% is indicative of agonists)	
CCCCC/C=C\C[C@H](O)CC/C=C\C/C=C\COCC(=O)O [4-a-(R), (9(R)-Hydroxyheptadeca-2(Z),5(Z),11(Z)-trienyloxy)acetic acid]	48.0	Antagonist (inhibition lower than 50% is indicative of antagonists)	
CCCCC/C=C\C[C@H](O)CC/C=C\C/C=C\CCCC(=O)NS(C)(=O)=O [1-a-(R), N-(Methylsulfonyl)-12(R)-hydroxyeicosa-5(Z),8(Z),14(Z)-trienamide]	62.6	Agonist (inhibition of [^3H]12(R)-HETrE binding greater than 50% is indicative of agonists)	
C[C@@H]1C[C@@H]([C@H](O)CC2CC(=O)NC(=O)C2)C(=O)[C@@H](C)C1 [cycloheximide]			effect on 12(R)-HETrE-induced VEGF mRNA/expression (VEGF mRNA): did not affect
CCCCC/C=C\C[C@H](O)CC/C=C\CCCCCCC(=O)O [5-(R), 12(R)-Hydroxyeicosa-8(Z),14(Z)-dienoic acid]	92.4	Agonist (inhibition of [^3H]12(R)-HETrE binding greater than 50% is indicative of agonists)	
Cc1c2oc3c(C)ccc(C(=O)N[C@@H]4C(=O)N[C@H](C(C)C)C(=O)N5CCC[C@H]5C(=O)N(C)CC(=O)N(C)[C@@H](C(C)C)C(=O)O[C@@H]4C)c3nc-2c(C(=O)N[C@@H]2C(=O)N[C@H](C(C)C)C(=O)N3CCC[C@H]3C(=O)N(C)CC(=O)N(C)[C@@H](C(C)C)C(=O)O[C@@H]2C)c(N)c1=O [actinomycin D] (I: T[dV]P[Sar][NMeV] / II: T[dV]P[Sar][NMeV]; ester I:1-I:C, II:1-II:C; linker I:N-II:N via Actinocin(9to1))			effect on 12(R)-HETrE-induced VEGF mRNA/expression (VEGF mRNA): abolished
CCCCCCCC[C@@H](O)CC/C=C\C/C=C\CCCC(=O)O [6-(R), 12(R)-Hydroxyeicosa-5(Z),8(Z)-dienoic acid]	87.2	Agonist (inhibition of [^3H]12(R)-HETrE binding greater than 50% is indicative of agonists)	
CCCCC/C=C\C[C@@H](O)CC/C=C\C/C=C\CCCC(=O)O [12(S)-HETrE, 12(S)-(5Z,8Z,14Z)-12-hydroxyeicosa-5,8,14-trienoic acid, reference compound]	62.4	Agonist (inhibition of [^3H]12(R)-HETrE binding greater than 50% is indicative of agonists)	
CCCCC/C=C\C[C@H](CC/C=C\C/C=C\CCCC(=O)O)OC [2-(S), 12(S)-Methoxyeicosa-5(Z),8(Z),14(Z)-trienoic acid]	34.2	Antagonist (inhibition lower than 50% is indicative of antagonists)	
CCCCC/C=C\C[C@@H](CC/C=C\C/C=C\CCCC(=O)O)OC [2-(R), 12(R)-Methoxyeicosa-5(Z),8(Z),14(Z)-trienoic acid]	38.6	Antagonist (inhibition lower than 50% is indicative of antagonists)	
CCCCC/C=C\C[C@H](O)CCCCC/C=C\CCCC(=O)O [7-(R), 12(R)-Hydroxy-eicosa-5(Z),14(Z)-dienoic acid]	88.7	Agonist (inhibition of [^3H]12(R)-HETrE binding greater than 50% is indicative of agonists)	
CCCCCCCC[C@H](O)CC/C=C\C/C=C\CCCC(=O)O [6-(S), 12(S)-Hydroxyeicosa-5(Z),8(Z)-dienoic acid]	73.0	Agonist (inhibition of [^3H]12(R)-HETrE binding greater than 50% is indicative of agonists)	
